pIC50: −log10 of the molar value. *1 amine or outer side, *2 acyl side, *3 side chain or, on linkers, in order; H or OH if unused. Where a SMILES comes first, the peptide text is derived from it. Bridges are numbered along the chain shown (N, C = ends). [ ]: non-standard residue; d: D form. The star is where a group is joined. 2Nal = N[C@@H](Cc1ccc2ccccc2c1)C(=O)O; AEF = NCCOc1ccc(C[C@H](N)C(=O)O)cc1; X1 = O=C(Cc1ccc(CN[*:1])cc1)[*:2]; 3Pal = N[C@@H](Cc1cccnc1)C(=O)O; αMeL = CC(C)C[C@](C)(N)C(=O)O; CH2COCH2 = O=C(C[*:1])C[*:2]; NMeS = CN[C@@H](CO)C(=O)O; Pyrrolidide = C1CCN(*)C1; Dab = NCC[C@H](N)C(=O)O; βAla = NCCC(=O)O
biological target: T1, human IL-23R (Homo sapiens, UniProt Q5VWK5); assay: biochemical; details: not given
T1 sequence (Q5VWK5 22-629): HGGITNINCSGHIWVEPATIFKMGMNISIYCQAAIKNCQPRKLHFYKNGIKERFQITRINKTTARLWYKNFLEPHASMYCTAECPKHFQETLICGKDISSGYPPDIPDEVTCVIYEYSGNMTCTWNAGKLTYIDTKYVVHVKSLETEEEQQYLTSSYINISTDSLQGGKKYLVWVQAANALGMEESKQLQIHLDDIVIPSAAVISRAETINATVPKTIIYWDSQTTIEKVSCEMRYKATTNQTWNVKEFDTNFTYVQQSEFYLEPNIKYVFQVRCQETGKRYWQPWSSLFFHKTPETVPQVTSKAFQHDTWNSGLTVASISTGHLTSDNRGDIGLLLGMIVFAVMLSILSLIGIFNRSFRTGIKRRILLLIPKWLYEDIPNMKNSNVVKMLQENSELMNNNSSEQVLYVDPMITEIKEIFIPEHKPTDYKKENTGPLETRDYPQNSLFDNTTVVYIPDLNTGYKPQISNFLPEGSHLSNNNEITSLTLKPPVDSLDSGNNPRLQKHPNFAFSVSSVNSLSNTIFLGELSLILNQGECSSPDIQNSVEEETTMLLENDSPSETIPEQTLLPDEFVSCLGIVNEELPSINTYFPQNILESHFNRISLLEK
Description: The compound binding affinity for IL-23R was estimated by the ability of compounds to displace a fluorophore-labelled reference compound from the human IL-23R. The assay principle relies on Bioluminescence Resonance Energy Transfer (BRET) between a fluorophore-labelled reference compound binding to the IL-23R part of a fusion protein consisting of the IL-23R fused to a Nanoluc luciferase enzyme (Nanoluc). The Nanoluc is placed in the N-terminus in close proximity to the binding domain of the ligand. Upon close proximity between the fluorophore of the fluorophore-labelled compound and the Nanoluc of the fusion protein, bioluminescence energy generated from conversion of a Nanoluc substrate, is transferred to the fluorophore resulting in an increase in BRET. In presence of an unlabelled compound, the unlabelled compound displaces the fluorophore-labelled peptide from its binding site resulting in a decrease in BRET. The concentration for which half of the fluorophore-labelled peptide is displaced by the unlabelled compound depends on the affinity of the compound for the IL-23R, and is termed the IC50 concentration.
The plasmid also contained a gene to confer resistance for the antibiotic hygromycin. A cell line stably expressing the Nluc-IL23R fusion protein was generated by transfection of HEK293 cells with the expression plasmid and selected with hygromycin for 3 weeks in Growth medium consisting of DMEM w/ Glutamax-I containing, 10% V/V FBS, 1% V/V P/S, 1 mM Sodium Pyruvate, and 1X NEAA, and 0.3 mg/mL hygromycin. The remaining cells were propagated and considered a stable expressing Nluc-IL23R fusion protein pool clone.
Cells expressing the Nluc-IL23R fusion protein were expanded in Growth medium and membranes prepared by homogenization of a cell pellet from 18 T175 flasks (4 °C in subsequent steps). The cell pellet was lysed Tris 10 mM, 7.5, 1 mM EDTA and protease inhibitors (Complete, Roche) and homogenized using a 15 mL glass-dounce by 50 strokes. The homogenate was spun at spin @1500 rpm for 10 min, the supernatant transferred to SV-34 tubes and spun at 40000g for 20 min at 4 °C to pellet the crude membranes. The supernatant was then removed, the pellet resuspended in 5 mL buffer containing 50 mM HEPES pH 7.4, 5 mM EGTA, and 5 mM MgCl2, and homogenized. Aliquots of the resuspended and homogenized membranes containing the Nluc-IL23R fusion protein were stored at -80 °C until use.
The plate was sealed with light impermeable plate seals, and incubated on an orbital shaker 400 rpm for 2 hours at room temperature. To determine the BRET ratio, the plate seal was removed and 25 µL of the Nanoluc substrate (Promega N1572) diluted 1:500 was added to each well and incubated for 1-2 minutes on an orbital shaker at 400 rpm. […] The BRET ratio was calculated as the fluorescence from the TAMRA/nanoluc bioluminescence.
Compound potency (IC50) and maximal displacement (% displacement) were estimated by computer-aided curve fitting using a 4-parameter logistic (4PL) non-linear model. […]
In this application, the inventors provide the data as IC50 values.

Row | Compound | % displacement (hIL-23R binding) [%] | pIC50
1 | CC(C)C[C@]1(C)NC(=O)[C@H](Cc2ccc3ccccc3c2)NC(=O)[C@H](Cc2ccc(OCCN)cc2)NC(=O)[C@@H]2CSCC(=O)CSC[C@H](NC(=O)[C@H](CO)NC(=O)[C@H](Cc3cccnc3)NC(=O)CCNC(=O)CC[C@@H](C(=O)N[C@H](CCCNC(=N)N)C(N)=O)NC1=O)C(=O)N[C@@H](Cc1c[nH]c3ccccc13)C(=O)N[C@@H](CCC(N)=O)C(=O)N2 [Compound 1, [3-Aminopropanoyl](4c)*[3-(3-Pyridyl)-Ala]SC(2a)WQC(2a)[Y(2-aminoethoxy)][2-Nal][2-Me-Leu]E(4c)[{d}R]-[NH2]] ([βAla][3Pal]SCWQC[AEF][2Nal][αMeL]E[dR]-NH2; linker 4-7 via CH2COCH2; lactam N-11) | 105 | 8.27
2 | CC(C)C[C@]1(C)NC(=O)[C@H](Cc2ccc3ccccc3c2)NC(=O)[C@H](Cc2ccc(OCCN)cc2)NC(=O)[C@@H]2CSCC(=O)CSC[C@H](NC(=O)[C@H](CO)NC(=O)CCNC(=O)[C@H](Cc3cccnc3)NC(=O)CC[C@@H](C(=O)N[C@H](CCCNC(=N)N)C(N)=O)NC1=O)C(=O)N[C@@H](Cc1c[nH]c3ccccc13)C(=O)N[C@@H](CCC(N)=O)C(=O)N2 [Compound 2, [3-(3-Pyridyl)-Ala](4c)*[3-Aminopropanoyl]SC(2a)WQC(2a)[Y(2-aminoethoxy)][2-Nal][2-Me-Leu]E(4c)[{d}R]-[NH2]] ([3Pal][βAla]SCWQC[AEF][2Nal][αMeL]E[dR]-NH2; linker 4-7 via CH2COCH2; lactam N-11) | 103 | 8.54
3 | CC(C)C[C@]1(C)NC(=O)[C@H](Cc2ccc3ccccc3c2)NC(=O)[C@H](Cc2ccc(OCCN)cc2)NC(=O)[C@@H]2CCNC(=O)CC[C@H](NC(=O)[C@H](CO)NC(=O)Cc3ccc(cc3)CNC(=O)CC[C@@H](C(=O)NC[C@@H](N[C@@H](Cc3cccnc3)C(N)=O)C(F)(F)F)NC1=O)C(=O)N[C@@H](Cc1c[nH]c3ccccc13)C(=O)N[C@@H](CCC(N)=O)C(=O)N2 [Compound 16, [4-Aminomethyl-phenylacetyl](1c)*SE(2c)WQ[Dab](2c)[Y(2-aminoethoxy)][2-Nal][2-Me-Leu]E(1c)[{d}Gly-CF3][3-(3-Pyridyl)-Ala]-[NH2]] | – | 9.89
4 | CC(C)C[C@]1(C)NC(=O)[C@H](Cc2ccc3ccccc3c2)NC(=O)[C@H](Cc2ccc(OCCN)cc2)NC(=O)[C@@H]2CCNC(=O)CC[C@H](NC(=O)[C@H](CO)NC(=O)Cc3ccc(cc3)CNC(=O)CC[C@@H](C(=O)NC[C@H](N[C@@H](Cc3cccnc3)C(N)=O)C(F)(F)F)NC1=O)C(=O)N[C@@H](Cc1c[nH]c3ccccc13)C(=O)N[C@@H](CCC(N)=O)C(=O)N2 [Compound 17, [4-Aminomethyl-phenylacetyl](1c)*SE(2c)WQ[Dab](2c)[Y(2-aminoethoxy)][2-Nal][2-Me-Leu]E(1c)[Gly-CF3][3-(3-Pyridyl)-Ala]-[NH2]] | 98 | –
5 | CNC(=O)[C@H](Cc1cccnc1)NC(=O)[C@H](CCN)NC(=O)[C@@H]1CCC(=O)NCc2ccc(cc2)CC(=O)N(C)[C@@H](CO)C(=O)N[C@H]2CCC(=O)NCC[C@H](NC(=O)[C@H](CCC(N)=O)NC(=O)[C@H](Cc3c[nH]c4ccccc34)NC2=O)C(=O)N[C@@H](Cc2ccc(OCCN)cc2)C(=O)N[C@@H](Cc2ccc3ccccc3c2)C(=O)N[C@@](C)(CC(C)C)C(=O)N1 [Compound 18, [4-Aminomethyl-phenylacetyl](1c)*[N-Me-Ser]E(2c)WQ[Dab](2c)[Y(2-aminoethoxy)][2-Nal][2-Me-Leu]E(1c)[Dab][3-(3-Pyridyl)-Ala]-[NHMe]] ([X1][NMeS]EWQ[Dab][AEF][2Nal][αMeL]E[Dab][3Pal]-NHMe; lactam 3-6, N-10) | – | 10.82
6 | CNC(=O)[C@H](Cc1cncnc1)NC(=O)[C@H](CCN)NC(=O)[C@@H]1CCC(=O)NCc2ccc(cc2)CC(=O)N[C@@H](CO)C(=O)N[C@H]2CCC(=O)NCC[C@H](NC(=O)[C@H](CCC(N)=O)NC(=O)[C@H](Cc3c[nH]c4ccccc34)NC2=O)C(=O)N[C@@H](Cc2ccc(OCCN)cc2)C(=O)N[C@@H](Cc2ccc3ccccc3c2)C(=O)N[C@@](C)(CC(C)C)C(=O)N1 [Compound 19, [4-Aminomethyl-phenylacetyl](1c)*SE(2c)WQ[Dab](2c)[Y(2-aminoethoxy)][2-Nal][2-Me-Leu]E(1c)[Dab][3-(3,5-Pyrimidyl)-Ala]-[NHMe]] | 103 | 10.27
7 | CNC(=O)[C@H](Cc1cccnc1)NC(=O)[C@H](CCN)NC(=O)[C@@H]1CCC(=O)NCc2ccc(cc2)CC(=O)N[C@@H](CO)C(=O)N[C@H]2CCC(=O)NCC[C@H](NC(=O)[C@H](Cc3ccccc3)NC(=O)[C@H](Cc3c[nH]c4ccccc34)NC2=O)C(=O)N[C@@H](Cc2ccc(OCCN)cc2)C(=O)N[C@@H](Cc2ccc3ccccc3c2)C(=O)N[C@@](C)(CC(C)C)C(=O)N1 [Compound 23, [4-Aminomethyl-phenylacetyl](1c)*SE(2c)WF[Dab](2c)[Y(2-aminoethoxy)][2-Nal][2-Me-Leu]E(1c)[Dab][3-(3-Pyridyl)-Ala]-[NHMe]] ([X1]SEWF[Dab][AEF][2Nal][αMeL]E[Dab][3Pal]-NHMe; lactam 3-6, N-10) | 97 | –
8 | CNC(=O)[C@H](Cc1cccnc1)NC(=O)[C@H](CCN)NC(=O)[C@@H]1CCC(=O)NCc2ccc(cc2)CC(=O)N[C@@H](CO)C(=O)N[C@H]2CCC(=O)NCC[C@H](NC(=O)[C@H](CCCCNC(C)=O)NC(=O)[C@H](Cc3c[nH]c4ccccc34)NC2=O)C(=O)N[C@@H](Cc2ccc(OCCN)cc2)C(=O)N[C@@H](Cc2ccc3ccccc3c2)C(=O)N[C@@](C)(CC(C)C)C(=O)N1 [Compound 24, [4-Aminomethyl-phenylacetyl](1c)*SE(2c)W[K(Ac)][Dab](2c)[Y(2-aminoethoxy)][2-Nal][2-Me-Leu]E(1c)[Dab][3-(3-Pyridyl)-Ala]-[NHMe]] ([X1]SEWK(Ac)[Dab][AEF][2Nal][αMeL]E[Dab][3Pal]-NHMe; lactam 3-6, N-10) | 97 | 10.85
9 | CNC(=O)[C@H](Cc1cccnc1)NC(=O)[C@H](CCN)NC(=O)[C@@H]1CCC(=O)NCc2ccc(cc2)CC(=O)N[C@@H](CO)C(=O)N[C@H]2CCC(=O)NCC[C@H](NC(=O)[C@H](CCC(=O)N3CCCC3)NC(=O)[C@H](Cc3c[nH]c4ccccc34)NC2=O)C(=O)N[C@@H](Cc2ccc(OCCN)cc2)C(=O)N[C@@H](Cc2ccc3ccccc3c2)C(=O)N[C@@](C)(CC(C)C)C(=O)N1 [Compound 27, [4-Aminomethyl-phenylacetyl](1c)*SE(2c)W[Q(pyrrolidin)][Dab](2c)[Y(2-aminoethoxy)][2-Nal][2-Me-Leu]E(1c)[Dab][3-(3-Pyridyl)-Ala]-[NHMe]] ([X1]SEWE(Pyrrolidide)[Dab][AEF][2Nal][αMeL]E[Dab][3Pal]-NHMe; lactam 3-6, N-10) | 97 | –

same assay, conditions: read-out: % displacement (hIL-23R binding)

Row | Compound | Emax [%]
10 | CC(C)C[C@]1(C)NC(=O)[C@H](Cc2ccc3ccccc3c2)NC(=O)[C@H](Cc2ccc(OCCN)cc2)NC(=O)[C@@H]2CCNC(=O)CC[C@H](NC(=O)[C@H](CO)NC(=O)Cc3ccc(cc3)CNC(=O)CC[C@@H](C(=O)NC[C@@H](N[C@@H](Cc3cccnc3)C(N)=O)C(F)(F)F)NC1=O)C(=O)N[C@@H](Cc1c[nH]c3ccccc13)C(=O)N[C@@H](CCC(N)=O)C(=O)N2 [Compound 16, [4-Aminomethyl-phenylacetyl](1c)*SE(2c)WQ[Dab](2c)[Y(2-aminoethoxy)][2-Nal][2-Me-Leu]E(1c)[{d}Gly-CF3][3-(3-Pyridyl)-Ala]-[NH2]] | 101
11 | CNC(=O)[C@H](Cc1cccnc1)NC(=O)[C@H](CCN)NC(=O)[C@@H]1CCC(=O)NCc2ccc(cc2)CC(=O)N(C)[C@@H](CO)C(=O)N[C@H]2CCC(=O)NCC[C@H](NC(=O)[C@H](CCC(N)=O)NC(=O)[C@H](Cc3c[nH]c4ccccc34)NC2=O)C(=O)N[C@@H](Cc2ccc(OCCN)cc2)C(=O)N[C@@H](Cc2ccc3ccccc3c2)C(=O)N[C@@](C)(CC(C)C)C(=O)N1 [Compound 18, [4-Aminomethyl-phenylacetyl](1c)*[N-Me-Ser]E(2c)WQ[Dab](2c)[Y(2-aminoethoxy)][2-Nal][2-Me-Leu]E(1c)[Dab][3-(3-Pyridyl)-Ala]-[NHMe]] ([X1][NMeS]EWQ[Dab][AEF][2Nal][αMeL]E[Dab][3Pal]-NHMe; lactam 3-6, N-10) | 96
12 | CNC(=O)[C@H](Cc1cccnc1)NC(=O)[C@H](CCN)NC(=O)[C@@H]1CCC(=O)NCc2ccc(cc2)CC(=O)N[C@@H](CO)C(=O)N[C@H]2CCC(=O)NCC[C@H](NC(=O)[C@H](C)NC(=O)[C@H](Cc3c[nH]c4ccccc34)NC2=O)C(=O)N[C@@H](Cc2ccc(OCCN)cc2)C(=O)N[C@@H](Cc2ccc3ccccc3c2)C(=O)N[C@@](C)(CC(C)C)C(=O)N1 [Compound 22, [4-Aminomethyl-phenylacetyl](1c)*SE(2c)WA[Dab](2c)[Y(2-aminoethoxy)][2-Nal][2-Me-Leu]E(1c)[Dab][3-(3-Pyridyl)-Ala]-[NHMe]] ([X1]SEWA[Dab][AEF][2Nal][αMeL]E[Dab][3Pal]-NHMe; lactam 3-6, N-10) | 96

Reference: EP4471049A1 (Zealand Pharma A/S, priority 2023, dated 2024)
